# Data published in patent publication US20200032269A1, “GENETICALLY MODIFIED CELL LINES FOR METABOLIC STUDIES” (Hennepin Healthcare Research Institute, priority 2017, published 2020).
# Like-named read-outs stand apart in the source and are kept apart here.
# Tests used:
# [1] = system: CYP3A5 *1/*3 pm cell line; assay: Midazolam and tacrolimus metabolism assay, CYP3A5 *1/*3 pm cells
# Experimental: (§1) To further characterize the cell lines, metabolism assays were performed to determine the effect of each genetic variant on metabolism. FIG. 11 illustrates a generalized representative assay. In this exemplary assay, a cell line is plated on a collagen I-coated plate (or in a well of a multi-well plate, etc.), layered with an extracellular-matrix-like hydrogel (e.g., […], Corning Life Sciences, Tewksbury, Mass.), induced with a suitable inducer (e.g., rifampin and phenytoin), then treated with the substrate MDZ. The MDZ substrate is converted by the metabolic processes of the cell line to 1-OH MDZ or 4-OH MDZ, which can be measured using, for example high performance liquid chromatography (HPLC). The assay can be altered depending on the substrate, cell line, genetic variant, and any other experimental conditions.
# (§2) In this metabolism assay, all three exemplary cell lines and HuH-7 parental cell line were grown to confluency and then layered with […] (Corning Life Sciences, Tewksbury, Mass.). The cells were then induced with rifampicin and phenytoin for three days and treated with substrate Tac overnight. Cell culture media were collected after treatment and assayed for Tac disappearance using liquid chromatography-mass spectrometry.
# (§3) HuH-7 and engineered cells were grown to confluence in 12 well BIOCOAT collagen I multi-well plates (Corning, Inc., Corning, N.Y.) for 3-4 weeks in DMEM. Cells were then overlaid with […] matrix (Corning, Inc., Corning, N.Y.) and then induced for four days by adding 100 μM phenytoin (USP) and 10 μM rifampicin to the cell culture, with media changed daily with inducers. On the fourth day, 500 μl of media was added to the cells with 100 μM phenytoin (USP) and 10 μM rifampicin with either equal volumes of methanol, as a negative control, or Midazolam (MDZ; Cerrilliant Corp., Round Rock, Tex.) diluted in methanol so that MDZ final concentration was 5 μM in cell culture media. Cells were incubated overnight, and media was collected and assayed for MDZ, 1-OH MDZ and 4-OH MDZ by high performance liquid chromatography.
# (§4) To determine the metabolic function of the engineered cell lines, the cells were treated with MDZ at 1628 ng/mL (5 μM) in cell culture overnight. The following day, the cell culture media was harvested and analyzed by liquid chromatography/mass spectrometry (LC/MS) at the University of Minnesota Department of Experimental and Clinical Pharmacology to quantify the concentrations of MDZ and the metabolites 1-hydroxy-midazolam (1-OH MDZ) and 4-hydroxy-midazolam (4-OH MDZ).
# (§5) Likewise, Tac was added to cells and analyzed by LC/MS at the University of Minnesota Department of Experimental and Clinical Pharmacology. […]
# [2] = system: CYP3A5 *1/*3 sd cell line; assay: Midazolam and tacrolimus metabolism assay, CYP3A5 *1/*3 sd cells
# Experimental: as §1, §2, §3, §4, §5
# [3] = kidney transplant patients, cited from earlier work
# CYP3A5 = CYP3A5 (Homo sapiens, UniProt P20815); conditions: FIG. 16 diagram; cited from earlier work
# CYP3A5, sequence (P20815 whole entry): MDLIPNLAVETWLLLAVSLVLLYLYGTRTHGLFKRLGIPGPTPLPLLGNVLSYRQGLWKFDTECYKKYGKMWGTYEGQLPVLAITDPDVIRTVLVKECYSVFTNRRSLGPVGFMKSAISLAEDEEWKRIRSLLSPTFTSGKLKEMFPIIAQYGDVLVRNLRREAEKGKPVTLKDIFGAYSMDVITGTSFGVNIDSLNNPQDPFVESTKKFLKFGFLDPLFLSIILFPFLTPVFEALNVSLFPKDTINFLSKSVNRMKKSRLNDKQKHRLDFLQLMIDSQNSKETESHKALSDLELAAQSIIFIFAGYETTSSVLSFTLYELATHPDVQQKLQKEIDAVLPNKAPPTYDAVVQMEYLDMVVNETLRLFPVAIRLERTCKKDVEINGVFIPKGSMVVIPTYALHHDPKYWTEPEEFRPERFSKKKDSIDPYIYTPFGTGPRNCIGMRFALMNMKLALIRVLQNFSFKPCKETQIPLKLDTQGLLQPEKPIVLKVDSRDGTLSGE
# [4] = system: HuH-7 CYP3A5 *3/*3 cell line; assay: Midazolam and tacrolimus metabolism assay, parental HuH-7 cells
# Experimental: as §1, §2, §3, §4, §5
# CYP3A4 = CYP3A4 (Homo sapiens, UniProt P08684); conditions: FIG. 16 diagram; cited from earlier work
# CYP3A4, sequence (P08684 whole entry): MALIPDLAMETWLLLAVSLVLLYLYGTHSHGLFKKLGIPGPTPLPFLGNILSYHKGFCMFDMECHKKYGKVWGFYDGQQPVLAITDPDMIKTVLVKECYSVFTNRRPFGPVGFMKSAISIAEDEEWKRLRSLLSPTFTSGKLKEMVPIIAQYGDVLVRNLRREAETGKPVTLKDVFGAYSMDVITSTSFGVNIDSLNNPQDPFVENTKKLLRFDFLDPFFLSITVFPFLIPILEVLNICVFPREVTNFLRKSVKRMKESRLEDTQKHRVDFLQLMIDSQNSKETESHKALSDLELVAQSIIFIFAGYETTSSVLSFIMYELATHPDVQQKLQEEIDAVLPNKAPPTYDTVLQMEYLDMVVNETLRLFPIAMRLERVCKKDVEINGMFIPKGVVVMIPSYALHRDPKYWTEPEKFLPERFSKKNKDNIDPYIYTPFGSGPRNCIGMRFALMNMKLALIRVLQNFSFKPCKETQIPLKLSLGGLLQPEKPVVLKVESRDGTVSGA
# [5] = system: CYP3A5 *1/*1 dd cell line; assay: Midazolam and tacrolimus metabolism assay, CYP3A5 *1/*1 dd cells
# Experimental: as §1, §2
# HuH-7 and engineered cells were grown to confluence in 12 well BIOCOAT collagen I multi-well plates (Corning, Inc., Corning, N.Y.) for 3-4 weeks in DMEM. […]
# as §4, §5
smiles,measurement,setting,value
"C=CC[C@@H]1/C=C(\C)C[C@H](C)C[C@H](OC)[C@H]2O[C@@](O)(C(=O)C(=O)N3CCCC[C@H]3C(=O)O[C@H](/C(C)=C/[C@@H]3CC[C@@H](O)[C@H](OC)C3)[C@H](C)[C@@H](O)CC1=O)[C@H](C)C[C@@H]2OC [Tac, tacrolimus]",Tac disappearance,"[1]; human, 13 ng/mL",more efficiently than the parental HuH-7 cell line
same,Tac disappearance,"[2]; human, 13 ng/mL",more efficiently than the parental HuH-7 cell line
same,reduction in log-transformed dose-normalized troughs,[3]; one CYP3A5 *1 allele present,36%
same,reduction in log-transformed dose-normalized troughs,[3]; two CYP3A5 *1 alleles present,59%
Cc1ccc(-c2c(-c3nn(C)c4ncnc(N5CC[C@H](N6CCCCC6)C5)c34)cnn2C)cc1 [CYP3CIDE],inhibitory function on CYP3A5,CYP3A5,mild inhibitory effect
same,inhibition of 1-OH MDZ production,"[4]; 50 μM CYP3CIDE, HuH-7 cells, MDZ substrate, FIG. 19",nearly completely inhibited
same,inhibition of 4-OH MDZ production,"[4]; 50 μM CYP3CIDE, HuH-7 cells, MDZ substrate, FIG. 20",inhibited
same,inhibitory function on CYP3A4,CYP3A4,strong inhibitor
"Cc1ncc2n1-c1ccc(Cl)cc1C(c1ccccc1F)=NC2 [Midazolam, midazolam]",MDZ disappearance,"[1]; CYP3A5 *1/*3 pm, FIG. 13, five biological replicates",more efficiently than the parental HuH-7 cell line
same,Midazolam (ng/mL) No CYP3CIDE,"[1]; CYP3A5 *1/*3 pm, start 5 μM MDZ, overnight, no CYP3CIDE, mean ± SD of six",1130 ± 45 ng/mL
same,Midazolam (ng/mL) With CYP3CIDE,"[1]; CYP3A5 *1/*3 pm, start 5 μM MDZ, overnight, with 50 μM CYP3CIDE, mean ± SD of six",1224 ± 18 ng/mL
same,Midazolam (ng/mL) No CYP3CIDE,"[4]; HuH-7 CYP3A5 *3/*3, start 5 μM (approximately 1629 ng/ml) MDZ, overnight, no CYP3CIDE, mean ± SD of six",1458 ± 62 ng/mL
same,Midazolam (ng/mL) With CYP3CIDE,"[4]; HuH-7 CYP3A5 *3/*3, start 5 μM (approximately 1629 ng/ml) MDZ, overnight, with 50 μM CYP3CIDE, mean ± SD of six",1534 ± 32 ng/mL
same,MDZ disappearance,"[2]; CYP3A5 *1/*3 sd, FIG. 13, five biological replicates",more efficiently than the parental HuH-7 cell line
same,Midazolam (ng/mL) No CYP3CIDE,"[2]; CYP3A5 *1/*3 sd, start 5 μM MDZ, overnight, no CYP3CIDE, mean ± SD of six",971 ± 110 ng/mL
same,Midazolam (ng/mL) With CYP3CIDE,"[2]; CYP3A5 *1/*3 sd, start 5 μM MDZ, overnight, with 50 μM CYP3CIDE, mean ± SD of six",1241 ± 64 ng/mL
same,MDZ disappearance,"[5]; FIG. 13, five biological replicates",the most MDZ disappearance
same,Midazolam (ng/mL) No CYP3CIDE,"[5]; start 5 μM MDZ, overnight, no CYP3CIDE, mean ± SD of six",724 ± 200 ng/mL
same,Midazolam (ng/mL) With CYP3CIDE,"[5]; start 5 μM MDZ, overnight, with 50 μM CYP3CIDE, mean ± SD of six",1189 ± 90 ng/mL
